Test results reported in the NIST ThermoML archive (doi:10.1021/je0602418).
Values joined by “and” are separate entries in the source; they are usually repeats but may differ in a detail not shown here. Identical values can stand only once.

Settings: for Critical pressure / Critical temperature: pulse heating method

COC(=O)CCCCCCC(=O)OC [dimethyl octanedioate]
Liquid, Transpiration method
Settings | vapor or sublimation pressure [kPa]
293.3 K | 0.00062
295.3 K | 0.00077
298.3 K | 0.00105
303.2 K | 0.00169
308.3 K | 0.00273
313.2 K | 0.00451
318.1 K | 0.00698
323.1 K | 0.01107
328.1 K | 0.01684
333.1 K | 0.02524
338.1 K | 0.03923
343 K | 0.05566
348.1 K | 0.08123
352.1 K | 0.1083

Liquid
Settings | Critical pressure [kPa] | Critical temperature [K]
– | 2300 | 723

COC(=O)CCC(=O)OC [dimethyl 1,4-butanedioate]
Liquid, Transpiration method
Settings | vapor or sublimation pressure [kPa]
286.4 K | 0.01062
289.4 K | 0.01389
292.3 K | 0.01793
295.2 K | 0.02339
298.1 K | 0.0292
301.1 K | 0.03798
304.2 K | 0.04988
307.2 K | 0.06242
310.2 K | 0.07685
313.2 K | 0.09759
316.2 K | 0.1187
319.2 K | 0.1462
322.3 K | 0.1846
325.3 K | 0.2206
328.3 K | 0.2686
331.4 K | 0.3232
334.5 K | 0.395
337.5 K | 0.4891
340.6 K | 0.6151

Liquid
Settings | Critical pressure [kPa] | Critical temperature [K]
– | 3060 | 662

COC(=O)CCCCC(=O)OC [dimethyl 1,6-hexanedioate]
Liquid
Settings | vapor or sublimation pressure
294.2 K | 0.00284 kPa
297.1 K | 0.00356 kPa
297.4 K | 0.00377 kPa
298.1 K | 0.00391 kPa
300.6 K | 0.00505 kPa
303.1 K | 0.00619 kPa
303.3 K | 0.00649 kPa
305.4 K | 0.00775 kPa
308.1 K | 0.00948 kPa and 0.00946 kPa
311.6 K | 0.01308 kPa
313.2 K | 0.01501 kPa
314.4 K | 0.01648 kPa
317.2 K | 0.02059 kPa
318.2 K | 0.02254 kPa
318.5 K | 0.02198 kPa
320.2 K | 0.02543 kPa
323.3 K | 0.03244 kPa
323.4 K | 0.03434 kPa
326.2 K | 0.03996 kPa
328.3 K | 0.05027 kPa
332.2 K | 0.06088 kPa
333.2 K | 0.07135 kPa
334.3 K | 0.07203 kPa
337.4 K | 0.08819 kPa
338.5 K | 0.1013 kPa and 0.1038 kPa
340.2 K | 0.1114 kPa
343.5 K | 0.1393 kPa and 0.1369 kPa
348.5 K | 0.1893 kPa
348.6 K | 0.2004 kPa
351.7 K | 0.2406 kPa
353.6 K | 0.2604 kPa
358.6 K | 0.3551 kPa and 0.3732 kPa
361.7 K | 0.446 kPa
363.7 K | 0.4731 kPa
368.7 K | 0.6312 kPa and 0.676 kPa
369.7 K | 0.6863 kPa
373.8 K | 0.8347 kPa and 0.8876 kPa

Liquid
Settings | Critical pressure [kPa] | Critical temperature [K]
– | 2500 | 692

COC(=O)CCCCCC(=O)OC [dimethyl 1,7-heptanedioate]
Liquid, Transpiration method
Settings | vapor or sublimation pressure [kPa]
291.3 K | 0.0013
293.3 K | 0.00161
298.3 K | 0.00264
303.2 K | 0.00423
308.2 K | 0.00693
313.2 K | 0.01073
318.2 K | 0.01734
323.2 K | 0.02558
328.2 K | 0.03778
333.1 K | 0.0547
338.2 K | 0.0784
343.2 K | 0.1123
348.1 K | 0.1618
353.1 K | 0.2251

Liquid
Settings | Critical pressure [kPa] | Critical temperature [K]
– | 2370 | 711

COC(=O)C(=O)OC [dimethyl ethanedioate]
Transpiration method
Settings | vapor or sublimation pressure [kPa]
293.3 K, Crystal | 0.04995
296.3 K, Crystal | 0.06801
298.2 K, Crystal | 0.07959
301.2 K, Crystal | 0.1046
303.2 K, Crystal | 0.1298
306.2 K, Crystal | 0.178
308.2 K, Crystal | 0.2104
311.2 K, Crystal | 0.2873
313.2 K, Crystal | 0.3372
316.2 K, Crystal | 0.4466
318.3 K, Crystal | 0.5545
319.2 K, Crystal | 0.6006
321.2 K, Crystal | 0.7191
325.3 K, Crystal | 0.9657
330.4 K, Liquid | 1.399
333.2 K, Liquid | 1.612
335.2 K, Liquid | 1.819
337.2 K, Liquid | 2.022
340.3 K, Liquid | 2.395
343.2 K, Liquid | 2.841
345.3 K, Liquid | 3.144
346.2 K, Liquid | 3.25
349.2 K, Liquid | 3.905
350.4 K, Liquid | 4.141
352.2 K, Liquid | 4.479
355.5 K, Liquid | 5.325
357.2 K, Liquid | 5.707
359.2 K, Liquid | 6.28
360.6 K, Liquid | 6.526
362.2 K, Liquid | 7.181
365.2 K, Liquid | 8.422

Liquid
Settings | Critical pressure [kPa] | Critical temperature [K]
– | 4060 | 639

COC(=O)CCCCCCCCC(=O)OC [dimethyl sebacate]
Liquid
Settings | vapor or sublimation pressure [kPa]
304.1 K | 0.00014
308.1 K | 0.0002
313.2 K | 0.00036
318.2 K | 0.00059
323.4 K | 0.00101
328.3 K | 0.00162
333.4 K | 0.0025
338.4 K | 0.00388
343.5 K | 0.00594
348.2 K | 0.00839
353.6 K | 0.01405
355.6 K | 0.01486
358.6 K | 0.01849
363.7 K | 0.02808
368.8 K | 0.03965
373.8 K | 0.05473

Liquid
Settings | Critical pressure [kPa] | Critical temperature [K]
– | 2080 | 742

COC(=O)CCCC(=O)OC [dimethyl pentanedioate]
Liquid
Settings | vapor or sublimation pressure
283.7 K | 0.00275 kPa
286.3 K | 0.00357 kPa
288.4 K | 0.0043 kPa
290.5 K | 0.00564 kPa
293.2 K | 0.00758 kPa
293.3 K | 0.00747 kPa
295.6 K | 0.00958 kPa
296.2 K | 0.00984 kPa
298.2 K | 0.01214 kPa
298.4 K | 0.01204 kPa
300.3 K | 0.01479 kPa
303.2 K | 0.01881 kPa
303.3 K | 0.0193 kPa
305.4 K | 0.02301 kPa
306.2 K | 0.02388 kPa
308.2 K | 0.02904 kPa
309.2 K | 0.03102 kPa
310.2 K | 0.03348 kPa
312.1 K | 0.03995 kPa
313.2 K | 0.04146 kPa
313.5 K | 0.04323 kPa
315.2 K | 0.05031 kPa
315.5 K | 0.05126 kPa
316.2 K | 0.05285 kPa
318.1 K | 0.06049 kPa
318.3 K | 0.06276 kPa
319.2 K | 0.0664 kPa
320.2 K | 0.07343 kPa
320.3 K | 0.06968 kPa
321.4 K | 0.07692 kPa
323.2 K | 0.09072 kPa
323.3 K | 0.08542 kPa and 0.09398 kPa
325.2 K | 0.1033 kPa and 0.1021 kPa
327.1 K | 0.1263 kPa
328.3 K | 0.1276 kPa
329.2 K | 0.148 kPa
330.2 K | 0.1428 kPa
331.3 K | 0.1646 kPa
333.1 K | 0.1752 kPa
333.2 K | 0.1798 kPa
335.3 K | 0.1977 kPa and 0.2051 kPa
338.3 K | 0.2474 kPa and 0.2598 kPa
340.2 K | 0.2719 kPa
341.3 K | 0.3017 kPa
343.1 K | 0.3382 kPa
343.2 K | 0.3425 kPa
345.2 K | 0.3651 kPa
348.1 K | 0.4368 kPa

Liquid
Settings | Critical pressure [kPa] | Critical temperature [K]
– | 2770 | 682

COC(=O)CCCCCCCC(=O)OC [dimethyl nonanedioate]
Liquid
Settings | vapor or sublimation pressure
298.1 K | 0.00019 kPa
303.1 K | 0.00028 kPa
308.1 K | 0.00054 kPa
313.2 K | 0.0008 kPa and 0.00084 kPa
318.2 K | 0.00138 kPa and 0.00131 kPa
320.2 K | 0.00167 kPa and 0.00164 kPa
323.3 K | 0.00226 kPa
323.4 K | 0.00228 kPa
325.3 K | 0.00278 kPa
328.3 K | 0.00335 kPa and 0.00362 kPa
330.8 K | 0.00466 kPa
333.4 K | 0.00549 kPa and 0.00561 kPa
335.9 K | 0.00711 kPa
338.4 K | 0.00771 kPa and 0.00858 kPa
341 K | 0.01011 kPa
343.4 K | 0.01171 kPa
343.8 K | 0.01311 kPa
348.5 K | 0.01757 kPa
348.6 K | 0.0185 kPa
351.1 K | 0.02169 kPa
353.6 K | 0.02548 kPa and 0.02436 kPa and 0.02518 kPa
358.6 K | 0.03663 kPa
358.7 K | 0.03635 kPa
360.2 K | 0.04123 kPa
363.7 K | 0.05391 kPa and 0.05451 kPa
366.2 K | 0.0656 kPa
368.9 K | 0.07601 kPa and 0.08031 kPa
371.3 K | 0.08918 kPa and 0.08695 kPa
373.8 K | 0.1016 kPa and 0.1065 kPa

COC(=O)CC(=O)OC [dimethyl 1,3-propanedioate]
Liquid, Transpiration method
Settings | vapor or sublimation pressure [kPa]
278.2 K | 0.0117
281.2 K | 0.01507
284.3 K | 0.01969
287.2 K | 0.02593
290.8 K | 0.03523
293.2 K | 0.04253
296.1 K | 0.0533
298 K | 0.06386
299.4 K | 0.06974
302.2 K | 0.08729
303.3 K | 0.09423
305.3 K | 0.1063
308.4 K | 0.1313
311.2 K | 0.165
314.3 K | 0.2046

Liquid
Settings | Critical pressure [kPa] | Critical temperature [K]
– | 3530 | 649
